Like-named read-outs stand apart in the source and are kept apart here.
Legend:
Kir2.1 = molecular target: T1, Kir2.1 (Homo sapiens, UniProt P63252); test: CiPA IonChannelProfiler Cardiac Panel, QPatch; format: cell-based; conditions: mean of two sample results
T1 sequence (P63252 1-427): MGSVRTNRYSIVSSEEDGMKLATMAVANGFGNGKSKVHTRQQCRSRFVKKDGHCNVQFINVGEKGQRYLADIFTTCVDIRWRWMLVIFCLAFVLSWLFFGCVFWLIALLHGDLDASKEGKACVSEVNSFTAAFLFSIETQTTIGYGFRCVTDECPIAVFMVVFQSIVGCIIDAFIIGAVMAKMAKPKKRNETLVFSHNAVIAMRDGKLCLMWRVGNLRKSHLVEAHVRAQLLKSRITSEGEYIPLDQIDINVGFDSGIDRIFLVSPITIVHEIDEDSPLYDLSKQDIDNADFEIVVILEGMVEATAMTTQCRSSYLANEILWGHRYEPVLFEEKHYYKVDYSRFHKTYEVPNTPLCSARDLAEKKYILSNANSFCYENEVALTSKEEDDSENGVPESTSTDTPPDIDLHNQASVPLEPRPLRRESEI

CYP1A2 = test: CYP induction, in situ catalytic activity, human hepatocytes; format: in vitro ADME
Text: (§1) Rifampicin as a positive control and solvent (0.1% DMSO) vehicle control were also included. The acceptance criteria for CYP induction was ≥ 2-fold induction for significant CYP activity, while the acceptance criteria for CYP mRNA was ≥ 4-fold for significant CYP induction.

CYP1A2 mRNA = test: CYP induction, mRNA, primary cultured human hepatocytes; format: in vitro ADME; conditions: read-out: CYP1A2 mRNA Fold Induction (fold of vehicle control)
Text: as §1

SMILES: CCc1cc(Cl)c(OC)c(N2CCN(C[C@H](O)CCNC(=O)c3cc4ccccc4[nH]3)CC2)c1 [(R)-VK4-116]
- Mean % inhibition on hKir2.1 (End) (Kir2.1; 0.01 µM): 8.24%
- Mean % inhibition on hKir2.1 (End) (Kir2.1; 0.1 µM): 12.22%
- Mean % inhibition on hKir2.1 (End) (Kir2.1; 1 µM): 16.36%
- Mean % inhibition on hKir2.1 (End) (Kir2.1; 10 µM): 18.23%
- Mean % inhibition on hKir2.1 (End) (Kir2.1; 100 µM): 97.19%
- Mean % inhibition on hKir2.1 (Peak) (Kir2.1; 0.01 µM): 9.54%
- Mean % inhibition on hKir2.1 (Peak) (Kir2.1; 0.1 µM): 14.42%
- Mean % inhibition on hKir2.1 (Peak) (Kir2.1; 1 µM): 19.01%
- Mean % inhibition on hKir2.1 (Peak) (Kir2.1; 10 µM): 21.58%
- Mean % inhibition on hKir2.1 (Peak) (Kir2.1; 100 µM): 52.64%

SMILES: [Ba+2].[Cl-].[Cl-] [Barium Chloride]
- Mean % inhibition on hKir2.1 (End) (Kir2.1; 1 µM): 11.87%
- Mean % inhibition on hKir2.1 (End) (Kir2.1; 3 µM): 30.43%
- Mean % inhibition on hKir2.1 (End) (Kir2.1; 10 µM): 55.57%
- Mean % inhibition on hKir2.1 (End) (Kir2.1; 30 µM): 85.21%
- Mean % inhibition on hKir2.1 (End) (Kir2.1; 100 µM): 89.33%
- Mean % inhibition on hKir2.1 (Peak) (Kir2.1; 1 µM): 6.70%
- Mean % inhibition on hKir2.1 (Peak) (Kir2.1; 3 µM): 11.92%
- Mean % inhibition on hKir2.1 (Peak) (Kir2.1; 10 µM): 17.51%
- Mean % inhibition on hKir2.1 (Peak) (Kir2.1; 30 µM): 27.21%
- Mean % inhibition on hKir2.1 (Peak) (Kir2.1; 100 µM): 45.99%

SMILES: COc1ccc2[nH]c([S+]([O-])Cc3ncc(C)c(OC)c3C)nc2c1 (stereo not drawn) [Omeprazole, reference compound]
- CYP1A2 activity, Fold of Vehicle Control (CYP1A2; Lot 336, 50 µM): 17 fold
- CYP1A2 activity, Fold of Vehicle Control (CYP1A2; Lot 348B, 50 µM): 44 fold
- CYP1A2 activity, Fold of Vehicle Control (CYP1A2; Lot 399, 50 µM): 23 fold
- Phenacetin-O- deethylation (CYP1A2; Lot 399, 50 µM): 186 pmol/min/106 cells
- fold induction at 48 h, 50 µM (CYP1A2 mRNA; Lot 336, 50 µM): 115
- fold induction at 48 h, 50 µM (CYP1A2 mRNA; Lot 348B, 50 µM): 361
- fold induction at 48 h, 50 µM (CYP1A2 mRNA; Lot 399, 50 µM): 232
